Reference: US10899910B2, “Quaternary cationic polymers” (ECOLAB USA, INC., priority 2016, dated 2021)

Columns and labels:
[1] = Corrosion bubble cell test (Linear Polarization Resistance); settings: 2 ppm with 1% 2ME synergist, 80° C.
Experimental: (§1) Cationic polymer salts were evaluated for corrosion performance as compared to a C12-C18 alkyl dimethyl benzyl ammonium chloride via a bubble test procedure. The bubble test simulates low flow areas where little or no mixing of water and oil occurs. The test was conducted using brine (80% of the brine being 3% sodium chloride brine and 20% of the brine being a hydrocarbon containing 75% LVT-200 kerosene oil and 25% xylene). The brine was placed into kettles and purged with carbon dioxide. The brine was continually purged with carbon dioxide to saturate the brine prior to starting the test. After the test began, the test cell was blanketed with carbon dioxide one hour prior to electrode insertion and through the duration of the test to maintain saturation. The kettles were stirred at 150 revolutions per minute (rpm) for the duration of the test to maintain thermal equilibrium at 80° C. The corrosion rate was measured by Linear Polarization Resistance (LPR) techniques. The working electrode used was carbon steel. The counter and reference electrodes were both 1018 carbon steel. The electrodes were all cleaned and polished prior to testing. Data were collected for three hours before 20 ppm of each of the compositions (containing 2 ppm of each of various pentaquaternary cationic polymer salts or the comparative C12-C18 alkyl dimethyl benzyl ammonium chloride and 1% 2-mercaptoethanol (2ME) as synergist in an organic solvent) was dosed into its respective cell. Data were collected overnight. A low concentration of the compositions was used to differentiate between the compositions.
Corrosion bubble cell tests were performed according to the method of Example A1 to evaluate a hexaquaternary cationic polymer salt for corrosion performance as compared to a C12-C18 alkyl dimethyl benzyl ammonium chloride. Data were collected for three hours before 20 ppm of each of the compositions (containing 2 ppm of a hexaquaternary cationic polymer salt or the comparative C12-C18 alkyl dimethyl benzyl ammonium chloride and 1% 2ME as synergist in an organic solvent) was dosed into its respective cell. Data were collected overnight. A low concentration of the compositions was used to differentiate between the compositions.
as §1, with “six” for “three”, “polyethyleneimine-based” for “pentaquaternary”, “cell. However, for the comparative composition, data was only collected three hours before addition of the compositions.” for “cell.”

[2] = Surface tension measurement (Tracker tensiometer); format: physicochemical; settings: room temperature
Experimental: Surface tension measurements were conducted on a Tracker tensiometer (Teclis Instruments) at room temperature. Various concentrations of surfactant solutions were prepared and measurements were conducted.
The surface tension as a function of concentration of the cationic surfactant samples were measured and are listed in Table 2, where NT means not tested.

[3] = system: collection of aerobic bacteria from 30 water samples in cooling towers across North America; assay: Biofilm reduction (biofilm inhibition test, stain absorbance at 590 nm); format: cell-based; settings: for (Comp. - Single Quat 2)*100 / Single Quat 2: biofilm reduction relative to Single Quat 2
Experimental: Biofilm reduction experiments were conducted to test the efficacy of multi-quaternary cationic polymers compared to single quaternary compounds. Two different compositions were prepared containing single quaternary compounds: a composition (Single Quat 1) comprising about 50% by weight bisoctyl dimethyl ammonium chloride (CAS #5538-94-3) and about 5-10% by weight glycerin; and a composition (Single Quat 2) comprising about 50% by weight didecyl-dimethyl ammonium chloride (CAS #7173-51-5) and about 10-30% by weight ethanol. The test bacteria comprised a collection of aerobic bacteria from 30 water samples in cooling towers across North America. Different concentrations of cationic polymer salts and single quaternary compounds were tested ranging from about 0.8 ppm to about 1000 ppm. Using the biofilm inhibition test protocols, the absorbed stains were extracted and absorbance was measured at 590 nm. The biofilm reduction was calculated by comparing the absorbance of treated vs untreated controls, then averaged over six replicates.

[4] = CO2-saturated brine/hydrocarbon, three hours baseline (Tables 8, 9)

## CCCCCCCCCCCCCCCCCC[N+](C)(C)CC(O)CN(CCN(CCN(CC(O)C[N+](C)(C)C)CC(O)C[N+](C)(C)C)CC(O)C[N+](C)(C)C)CC(O)C[N+](C)(C)C.[Cl-].[Cl-].[Cl-].[Cl-].[Cl-] (stereo not drawn) [Compound 7]
[1]; [4]
  % Protection: 64%
[2]; concentration 0.010 %
  Surface tension: 73.70 mN/m
[2]; concentration 0.025 %
  Surface tension: 72.05 mN/m
[2]; concentration 0.050 %
  Surface tension: 64.84 mN/m
[2]; concentration 0.100 %
  Surface tension: 60.93 mN/m
[2]; concentration 0.200 %
  Surface tension: 57.12 mN/m
[2]; concentration 0.500 %
  Surface tension: 55.13 mN/m
[3]; active conc. 0.8 ppm
  Biofilm reduction: 22.9%
  (Comp. - Single Quat 2)*100 / Single Quat 2: 106.8%
[3]; active conc. 1.6 ppm
  Biofilm reduction: 12.7%
  (Comp. - Single Quat 2)*100 / Single Quat 2: 321.3%
[3]; active conc. 3.0 ppm
  Biofilm reduction: 46.7%
  (Comp. - Single Quat 2)*100 / Single Quat 2: 35.5%
[3]; active conc. 6.0 ppm
  Biofilm reduction: 23.5%
  (Comp. - Single Quat 2)*100 / Single Quat 2: 195.0%
[3]; active conc. 8.0 ppm
  Biofilm reduction: 54.9%
  (Comp. - Single Quat 2)*100 / Single Quat 2: −20.8%
[3]; active conc. 12.0 ppm
  Biofilm reduction: 65.1%
  (Comp. - Single Quat 2)*100 / Single Quat 2: 24.2%
[3]; active conc. 16.0 ppm
  Biofilm reduction: 90.6%
  (Comp. - Single Quat 2)*100 / Single Quat 2: 10.9%
[3]; active conc. 25.0 ppm
  Biofilm reduction: 90.6%
  (Comp. - Single Quat 2)*100 / Single Quat 2: 12.9%
[3]; active conc. 31.0 ppm
  Biofilm reduction: 94.7%
  (Comp. - Single Quat 2)*100 / Single Quat 2: 16.0%
[3]; active conc. 50.0 ppm
  Biofilm reduction: 93.0%
  (Comp. - Single Quat 2)*100 / Single Quat 2: 15.7%
[3]; active conc. 62.0 ppm
  Biofilm reduction: 96.6%
  (Comp. - Single Quat 2)*100 / Single Quat 2: 47.6%
[3]; active conc. 100.0 ppm
  Biofilm reduction: 79.3%
  (Comp. - Single Quat 2)*100 / Single Quat 2: 608.5%
[3]; active conc. 125.0 ppm
  Biofilm reduction: 96.6%
  (Comp. - Single Quat 2)*100 / Single Quat 2: 1517.3%
[3]; active conc. 250.0 ppm
  Biofilm reduction: 97.1%
  (Comp. - Single Quat 2)*100 / Single Quat 2: 15.3%
[3]; active conc. 500.0 ppm
  Biofilm reduction: 97.8%
  (Comp. - Single Quat 2)*100 / Single Quat 2: 6.3%
[3]; active conc. 1000.0 ppm
  Biofilm reduction: 98.4%
  (Comp. - Single Quat 2)*100 / Single Quat 2: 63.7%
[3]; at concentrations as low as about 12 ppm
  biofilm reduction compared with the Single Quat 2 composition: reduced biofilms to a greater extent than the Single Quat 2 composition

## CCCCCCCCCCCCCCCCCC[N+](C)(C)CC(O)CN(CCN(CCN(CC(O)C[N+](C)(C)CCCCCCCCCCCCCCCCCC)CC(O)C[N+](C)(C)CCCCCCCCCCCCCCCCCC)CC(O)C[N+](C)(C)C)CC(O)C[N+](C)(C)C.[Cl-].[Cl-].[Cl-].[Cl-].[Cl-] (stereo not drawn) [Compound 10]
[2]; concentration 0.010 %
  Surface tension: 70.99 mN/m
[2]; concentration 0.025 %
  Surface tension: 61.99 mN/m
[2]; concentration 0.050 %
  Surface tension: 57.33 mN/m
[2]; concentration 0.100 %
  Surface tension: 52.64 mN/m
[2]; concentration 0.200 %
  Surface tension: 50.58 mN/m
[2]; concentration 0.500 %
  Surface tension: 47.92 mN/m
[2]; concentration 1.000 %
  Surface tension: 47.48 mN/m

## CCCCCCCCCCCCCCCCCC[N+](C)(C)CC(O)CN(CCN(CCN(CC(O)C[N+](C)(C)CCCCCCCCCCCCCCCCCC)CC(O)C[N+](C)(C)CCCCCCCCCCCCCCCCCC)CC(O)C[N+](C)(C)C)CC(O)C[N+](C)(C)CCCCCCCCCCCCCCCCCC.[Cl-].[Cl-].[Cl-].[Cl-].[Cl-] (stereo not drawn) [Compound 11]
[1]; [4]
  % Protection: 76%
[2]; concentration 0.010 %
  Surface tension: 63.52 mN/m
[2]; concentration 0.025 %
  Surface tension: 60.01 mN/m
[2]; concentration 0.050 %
  Surface tension: 56.35 mN/m
[2]; concentration 0.100 %
  Surface tension: 53.23 mN/m
[2]; concentration 0.200 %
  Surface tension: 50.16 mN/m
[2]; concentration 0.500 %
  Surface tension: 47.38 mN/m
[2]; concentration 1.000 %
  Surface tension: 46.58 mN/m

## CCCCCCCCCCCCCCCCCC[N+](C)(C)CC(O)CN(CCN(CC(O)C[N+](C)(C)CCCCCCCCCCCCCCCCCC)CC(O)C[N+](C)(C)CCCCCCCCCCCCCCCCCC)CCN(CC(O)C[N+](C)(C)CCCCCCCCCCCCCCCCCC)CC(O)C[N+](C)(C)CCCCCCCCCCCCCCCCCC.[Cl-].[Cl-].[Cl-].[Cl-].[Cl-] (stereo not drawn) [Compound 12]
[1]; [4]
  % Protection: 55%
[2]; concentration 0.010 %
  Surface tension: 63.16 mN/m
[2]; concentration 0.025 %
  Surface tension: 55.77 mN/m
[2]; concentration 0.050 %
  Surface tension: 51.89 mN/m
[2]; concentration 0.100 %
  Surface tension: 49.42 mN/m
[2]; concentration 0.200 %
  Surface tension: 47.02 mN/m
[2]; concentration 0.500 %
  Surface tension: 45.02 mN/m
[2]; concentration 1.000 %
  Surface tension: 44.22 mN/m
[2]; concentration 1.500 %
  Surface tension: 43.46 mN/m
[2]; concentration 2.000 %
  Surface tension: 42.97 mN/m

## CCCCCCCCCCCCCCCCCC[N+](C)(C)CC(O)CN(CCN(CCN(CC(O)C[N+](C)(C)CCCCCCCCCCCCCCCCCC)CC(O)C[N+](C)(C)CCCCCCCCCCCCCCCCCC)CC(O)C[N+](C)(C)CCCCCCCCCCCCCCCCCC)CCN(CC(O)C[N+](C)(C)CCCCCCCCCCCCCCCCCC)CC(O)C[N+](C)(C)CCCCCCCCCCCCCCCCCC.[Cl-].[Cl-].[Cl-].[Cl-].[Cl-].[Cl-] (stereo not drawn) [Compound 13]
[1]; [4]
  % Protection: 52%
[2]; concentration 0.010 %
  Surface tension: 63.28 mN/m
[2]; concentration 0.025 %
  Surface tension: 59.04 mN/m
[2]; concentration 0.050 %
  Surface tension: 55.36 mN/m
[2]; concentration 0.100 %
  Surface tension: 52.65 mN/m
[2]; concentration 0.200 %
  Surface tension: 50.31 mN/m
[2]; concentration 0.500 %
  Surface tension: 48.02 mN/m
[2]; concentration 1.000 %
  Surface tension: 47.78 mN/m

## C12-C18 alkyl dimethyl benzyl ammonium chloride [reference compound]
[1]; six hours baseline (comparative: three hours) (Table 10)
  % Protection: 38%
[1]; [4]
  % Protection: 38%
